The text below walks through data of patent US20080306056A1, “PYRAZOLE-DERIVATIVES AS FACTOR Xa INHIBITORS” (SANOFI-AVENTIS DEUTSCHLAND GMBH, priority 2002, published 2008).

The structures appear in SMILES notation.

For this assay, the target named is T1, human factor Xa (Homo sapiens, UniProt P00742).
T1 construct: 25 μl human factor Xa (Enzyme Research Laboratories, Inc; South Bend, Ind.); purchased Enzyme Research Laboratories, Inc; South Bend, Ind
T1 sequence (P00742 235-488 limits assumed): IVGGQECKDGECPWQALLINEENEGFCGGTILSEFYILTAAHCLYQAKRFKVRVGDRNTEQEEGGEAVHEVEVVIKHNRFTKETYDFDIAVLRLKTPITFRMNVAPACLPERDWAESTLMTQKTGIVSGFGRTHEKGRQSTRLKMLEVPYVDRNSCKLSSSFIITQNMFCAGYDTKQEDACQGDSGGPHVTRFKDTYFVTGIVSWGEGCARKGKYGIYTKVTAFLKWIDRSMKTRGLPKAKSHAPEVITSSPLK
T1 sequence (P00742 41-179 partner limits assumed): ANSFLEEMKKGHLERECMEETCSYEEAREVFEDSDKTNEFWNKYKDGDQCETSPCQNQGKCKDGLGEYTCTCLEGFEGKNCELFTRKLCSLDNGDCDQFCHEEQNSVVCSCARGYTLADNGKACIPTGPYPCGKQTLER
Briefly: Factor Xa assay (chromogenic, purified enzyme). It counts as biochemical. The settings on record: inhibition constant for factor Xa; chromogenic substrate S-2765 140 μM, enzyme 0.5 nM, 25° C., pH 7.8; Ki=IC50/{1+(substrate concentration/Km)}; read-out: Ki(FXa). The source says:
The ability of the compound of formulae I, Ib and Ic to inhibit factor Xa or factor VIIa or other enzymes like thrombin, plasmin, or trypsin can be assessed by determining the concentration of the compound of the formulae I, Ib and Ic that inhibits enzyme activity by 50%, i.e. the IC50 value, which was related to the inhibition constant Ki. Purified enzymes were used in chromogenic assays. The concentration of inhibitor that causes a 50% decrease in the rate of substrate hydrolysis was determined by linear regression after plotting the relative rates of hydrolysis (compared to the uninhibited control) versus the log of the concentration of the compound of formulae I, Ib and Ic. For calculating the inhibition constant Ki, the IC50 value was corrected for competition with substrate using the formula wherein Km is the Michaelis-Menten constant (Chen and Prusoff, Biochem.
Ki=IC50/{1+(substrate concentration/Km)}
Pharmacol. 22 (1973) 3099-3108; I. H. Segal, Enzyme Kinetics, 1975, John Wiley & Sons, New York, 100-125; which were incorporated herein by reference).
The IC50 was determined by combining in appropriate wells of a Costar half-area microtiter plate 25 μl human factor Xa (Enzyme Research Laboratories, Inc.; South Bend, Ind.) in TBS-PEG; 40 μl 10% (v/v) DMSO in TBS-PEG (uninhibited control) or various concentrations of the compound to be tested diluted in 10% (v/v) DMSO in TBS-PEG; and substrate S-2765 (N(α)-benzyloxycarbonyl-D-Arg-Gly-L-Arg-p-nitroanilide; Kabi Pharmacia, Inc.; Franklin, Ohio) in TBS-PEG.
The assay was performed by pre-incubating the compound of formulae I, Ib and Ic plus enzyme for 10 min. Then the assay was initiated by adding substrate to obtain a final volume of 100 μl. The initial velocity of chromogenic substrate hydrolysis was measured by the change in absorbance at 405 nm using a Bio-tek Instruments kinetic plate reader (Ceres UV900HDi) at 25° C. during the linear portion of the time course (usually 1.5 min after addition of substrate). The enzyme concentration was 0.5 nM and substrate concentration was 140 μM.
The inhibitory activity towards factor VIIa/tissue factor activity was determined using a chromogenic assay essentially as described previously (J. A. Ostrem et al., Biochemistry 37 (1998) 1053-1059 which was incorporated herein by reference). Kinetic assays were conducted at 25° C. in half-area microtiter plates (Costar Corp., Cambridge, Mass.) using a kinetic plate reader (Molecular Devices Spectramax 250). A typical assay consisted of 25 μl human factor VIIa and TF (5 nM and 10 nM, respective final concentration) combined with 40 μl of inhibitor dilutions in 10% DMSO/TBS-PEG buffer (50 mM Tris, 15 mM NaCl, 5 mM CaCl2, 0.05% PEG 8000, pH 8.15). Following a 15 minute preincubation period, the assay was initiated by the addition of 35 μl of the chromogenic substrate S-2288 (D-Ile-Pro-Arg-p-nitroanilide, Pharmacia Hepar Inc., 500 μM final concentration).
With `CCOC(=O)C(NC(=O)c1cc(C(=O)NC2CCN(C(C)C)CC2)n(Cc2cc(-c3ccc(Cl)s3)on2)n1)C(C)C` (stereo not drawn) [Example 97, 2-{[1-[5-(5-Chloro-thiophen-2-yl)-isoxazol-3-ylmethyl]-5-(1-isopropyl-piperidin-4-ylcarbamoyl)-1H-pyrazole-3-carbonyl]-amino}-3-methyl-butyric acid ethyl ester], the Ki is 228 nM.
To `CC(C)N1CCC(NC(=O)c2cc(C(=O)N3CCC(S(C)(=O)=O)C3)nn2Cc2cc(-c3ccc(Cl)s3)on2)CC1` (stereo not drawn) [Example 39, 2-[5-(5-Chloro-thiophen-2-yl)-isoxazol-3-ylmethyl]-5-(3-methanesulfonyl-pyrrolidine-1-carbonyl)-2H-pyrazole-3-carboxylic acid (1-isopropyl-piperidin-4-yl)-amide] belongs 145 nM; to `CC(C)N1CCC(NC(=O)c2cc(-c3n[nH]c(=O)o3)nn2Cc2cc(-c3ccc(Cl)s3)on2)CC1` [Example 29, 2-[5-(5-Chloro-thiophen-2-yl)-isoxazol-3-ylmethyl]-5-(5-oxo-4,5-dihydro-[1,3,4]oxadiazol-2-yl)-2H-pyrazole-3-carboxylic acid (1-isopropyl-piperidin-4-yl)-amide], 155 nM.
For the molecule `CC(C)N1CCC(NC(=O)c2cc(C(=O)N3CCN(CCO)CC3)nn2Cc2cc(-c3ccc(Cl)s3)on2)CC1` [Example 30, 2-[5-(5-Chloro-thiophen-2-yl)-isoxazol-3-ylmethyl]-5-[4-(2-hydroxy-ethyl)-piperazine-1-carbonyl]-2H-pyrazole-3-carboxylic acid (1-isopropyl-piperidin-4-yl)-amide], the Ki amounted to 262 nM.
Next, `CC(C)N1CCC(NC(=O)c2cc(C(=O)N3CCC[C@H]3C(=O)O)nn2Cc2cc(-c3ccc(Cl)s3)on2)CC1` [Example 65, 1-[1-[5-(5-Chloro-thiophen-2-yl)-isoxazol-3-ylmethyl]-5-(1-isopropyl-piperidin-4-ylcarbamoyl)-1H-pyrazole-3-carbonyl]-2S-pyrrolidine-2-carboxylic acid]: 142 nM.
Next, `CC(C)C(NC(=O)c1cc(C(=O)NC2CCN(C(C)C)CC2)n(Cc2cc(-c3ccc(Cl)s3)on2)n1)C(=O)O` (stereo not drawn) [Example 98, 2-{[1-[5-(5-Chloro-thiophen-2-yl)-isoxazol-3-ylmethyl]-5-(1-isopropyl-piperidin-4-ylcarbamoyl)-1H-pyrazole-3-carbonyl]-amino}-3-methyl-butyric acid]: 140 nM.
With `CCOC(=O)CNC(=O)c1cc(C(=O)NC2CCN(C(C)C)CC2)n(Cc2cc(-c3ccc(Cl)s3)on2)n1` [Example 61, {[1-[5-(5-Chloro-thiophen-2-yl)-isoxazol-3-ylmethyl]-5-(1-isopropyl-piperidin-4-ylcarbamoyl)-1H-pyrazole-3-carbonyl]-amino}-acetic acid ethyl ester], the inhibition constant (Ki) worked out at 101 nM.
Next, `CC(C)N1CCC(NC(=O)c2cc(C(=O)NCC(=O)O)nn2CC(=O)Nc2ccc(Cl)cn2)CC1` [Example 94, {[1-[(5-Chloro-pyridin-2-ylcarbamoyl)-methyl]-5-(1-isopropyl-piperidin-4-ylcarbamoyl)-1H-pyrazole-3-carbonyl]-amino}-acetic acid]: 23 nM.
To `CC(C)N1CCC(NC(=O)c2cc(C(=O)N3CCCC3)nn2Cc2cc(-c3ccc(Cl)s3)on2)CC1` [Example 48, 2-[5-(5-Chloro-thiophen-2-yl)-isoxazol-3-ylmethyl]-5-(pyrrolidine-1-carbonyl)-2H-pyrazole-3-carboxylic acid (1-isopropyl-piperidin-4-yl)-amide] belongs 183 nM.
To `CC(C)N1CCC(NC(=O)c2cc(C(=O)OCCO)nn2CC(=O)Nc2ccc(Cl)cn2)CC1` [Example 107, 1-[(5-Chloro-pyridin-2-ylcarbamoyl)-methyl]-5-(1-isopropyl-piperidin-4-ylcarbamoyl)-1H-pyrazole-3-carboxylic acid 2-hydroxy-ethyl ester] belongs 20 nM.
On to `CC(C)N1CCC(NC(=O)c2cc(C(=O)OCC3CC3)nn2CC(=O)Nc2ccc(Cl)cn2)CC1` [Example 96, 1-[(5-Chloro-pyridin-2-ylcarbamoyl)-methyl]-5-(1-isopropyl-piperidin-4-ylcarbamoyl)-1H-pyrazole-3-carboxylic acid cyclopropylmethyl ester], for which the Ki turned out to be 18 nM.
Next, `CC(C)N1CCC(NC(=O)c2cc(C(=O)N3CCCC3C(F)(F)F)nn2Cc2cc(-c3ccc(Cl)s3)on2)CC1` (stereo not drawn) [Example 43, 2-[5-(5-Chloro-thiophen-2-yl)-isoxazol-3-ylmethyl]-5-(2-trifluoromethyl-pyrrolidine-1-carbonyl)-2H-pyrazole-3-carboxylic acid (1-isopropyl-piperidin-4-yl)-amide]: 72 nM.
On to `COC[C@@H]1CCCN1C(=O)c1cc(C(=O)NC2CCN(C(C)C)CC2)n(Cc2cc(-c3ccc(Cl)s3)on2)n1` [Example 66, 2-[5-(5-Chloro-thiophen-2-yl)-isoxazol-3-ylmethyl]-5-(2S,2-methoxymethyl-pyrrolidine-1-carbonyl)-2H-pyrazole-3-carboxylic acid (1-isopropyl-piperidin-4-yl)-amide], for which the Ki stood at 152 nM.
To `CC(C)N1CCC(NC(=O)c2cc(-c3cccs3)nn2Cc2cc3ccc(Cl)cc3s2)CC1` [Example 15, 2-(6-Chloro-benzo[b]thiophen-2-ylmethyl)-5-thiophen-2-yl-2H-pyrazole-3-carboxylic acid (1-isopropyl-piperidin-4-yl)-amide] belongs 13 nM.
In the case of `CC(C)N1CCC(NC(=O)c2cc(-c3cccs3)n(Cc3cc(-c4ccc(Cl)s4)on3)n2)CC1` [Example 2, 1-[5-(5-Chloro-thiophen-2-yl)-isoxazol-3-ylmethyl]-5-thiophen-2-yl-1H-pyrazole-3-carboxylic acid (1-isopropyl-piperidin-4-yl)-amide], the Ki is 32 nM.
To `CC(C)N1CCC(NC(=O)c2cc(-c3cccs3)nn2Cc2cc(-c3ccc(Cl)s3)on2)CC1` [Example 1, 2-[5-(5-Chloro-thiophen-2-yl)-isoxazol-3-ylmethyl]-5-thiophen-2-yl-2H-pyrazole-3-carboxylic acid (1-isopropyl-piperidin-4-yl)-amide] belongs 30 nM; to `COC(=O)c1cc(C(=O)NC2CCN(C(C)C)CC2)n(Cc2cc(-c3ccc(Cl)s3)on2)n1` [Example 20, 1-[5-(5-Chloro-thiophen-2-yl)-isoxazol-3-ylmethyl]-5-(1-isopropyl-piperidin-4-ylcarbamoyl)-1H-pyrazole-3-carboxylic acid methyl ester], 73 nM.
To `CC(C)N1CCC(NC(=O)c2cc(-c3ccc(Cl)s3)nn2Cc2cc(-c3ccc(Cl)s3)on2)CC1` [Example 5, 5-(5-Chloro-thiophen-2-yl)-2-[5-(5-chloro-thiophen-2-yl)-isoxazol-3-ylmethyl]-2H-pyrazole-3-carboxylic acid (1-isopropyl-piperidin-4-yl)-amide] belongs 300 nM; to `CC(C)N1CCC(NC(=O)c2cc(C(=O)NCCCO)nn2Cc2cc(-c3ccc(Cl)s3)on2)CC1` [Example 62, 1-[5-(5-Chloro-thiophen-2-yl)-isoxazol-3-ylmethyl]-1H-pyrazole-3,5-dicarboxylic acid 3-[(3-hydroxy-propyl)-amide] 5-[(1-isopropyl-piperidin-4-yl)-amide]], 80 nM; to `CC(C)N1CCC(NC(=O)c2cc(C(=O)N3CCC3)n(Cc3cc(-c4ccc(Cl)s4)on3)n2)CC1` [Example 86, 5-(Azetidine-1-carbonyl)-1-[5-(5-chloro-thiophen-2-yl)-isoxazol-3-ylmethyl]-1H-pyrazole-3-carboxylic acid (1-isopropyl-piperidin-4-yl)-amide], 142 nM.
To `CC(C)N1CCC(NC(=O)c2cc(C(=O)N3CCC(O)CC3)nn2Cc2cc(-c3ccc(Cl)s3)on2)CC1` [Example 35, 2-[5-(5-Chloro-thiophen-2-yl)-isoxazol-3-ylmethyl]-5-(4-hydroxy-piperidine-1-carbonyl)-2H-pyrazole-3-carboxylic acid (1-isopropyl-piperidin-4-yl)-amide] belongs 163 nM.

Broadly, the Ki is the equilibrium dissociation constant of an inhibitor or competing ligand from its target.
